Source: US10934255B2, “Nrf and HIF activators/HDAC inhibitors and therapeutic methods using the same” (THE BOARD OF TRUSTEES OF THE UNIVERSITY OF ILLINOIS, priority 2017, dated 2021)

Legend:
primary cortical neurons = assay: HCA-induced neurodegeneration assay (oxidative stress, glutathione depletion); format: cell-based; conditions: at 0.5 μM; protection declined at higher concentrations due to neurotoxicity
Method: FIG. 1 contains bar graphs of % cell survival vs. concentration for HCA evaluation of II-ING-66 using the glutathione depletion neurotoxicity model of oxidative stress. Immature primary cortical neurons were treated with the test compound alone or in the presence of HCA. Cell viability was assessed at 24 h using the MTT assay. Bar plot represents percentage control mean±SEM of viable cells (n=3). *p<0.05 and **p<0.01 compared to control (DMSO) (n=3/group). HCA oxidative stress assay.
Compound II-ING-66 was examined in a model of oxidative stress induced by homocysteic acid (HCA), where neurons were treated with the test compound alone or in the presence of HCA.
It has been shown that HDAC6 inhibition protects against neuronal degeneration and stimulates neurite outgrowth in dorsal root ganglion neurons, therefore indicating methods of treating CNS diseases. Accordingly, present compounds were examined in a model of oxidative stress induced by homocysteic acid (HCA). This model leads to depletion of glutathione, the major intracellular antioxidant. HDAC6 inhibition rescues neuronal death in this model, possibly by causing hyperacetylation of peroxiredoxins. […] (A. P. Kozikowski et al., J. Med. Chem. 2007, 50, 3054-61.) […]

[1] = system: prostate cancer (LNCaP) cells; conditions: via peroxiredoxin acetylation, published results; cited from earlier work
α-tubulin acetylation = conditions: published results; cited from earlier work

Row | SMILES | Neuroprotection in HCA-induced neurodegeneration (primary cortical neurons) | Concentration protecting from hydrogen peroxide-induced death [1] | Concentration inducing α-tubulin acetylation (α-tubulin acetylation)
1 | CC(/C=C/C(=O)NO)=C\[C@@H](C)C(=O)c1ccc(N(C)C)cc1 [TSA, Trichostatin A] | moderately neuroprotective |  | 
2 | O=C(CCCCCCC(=O)Nc1ccc([C@H]2O[C@@H](CSc3nc(-c4ccccc4)c(-c4ccccc4)o3)C[C@@H](c3ccc(CO)cc3)O2)cc1)NO [Tubacin] |  | 8 µM | 5 µM
